Data from patent US9770500B2 (priority 2011, dated 2017).

What was measured:
TcdB [1] = biological target: T1, TcdB (Clostridioides difficile, UniProt P18177); assay type: biochemical, Clostridium difficile
Caco-2 cells = details: MTT, TcdB 3.7 nM for 10 min
[2] = biological target: C. difficile TcdA holotoxin (Clostridioides difficile, UniProt P16154); assay type: binding, Clostridium difficile
[3] = biological target: toxin glucosyltransferase activity (Clostridioides difficile, UniProt P16154); assay type: biochemical, Clostridium difficile
Method: Cell Free Rac1 Glucosvlation Assay. Glucosyltransferase activity of TcdA and TcdA-SNO was measured by their ability to glucosylate Rho GTPase Rac1 in a cell-free assay. Caco-2 cell pellets were resuspended in glucosylation buffer (50 mM HEPES, pH 7.5, 100 mM KCl, 1 mM MnCl2 and 2 mM MgCl2) and lysed with a syringe (25G, 40 passes through the needle). After centrifugation (167,000×g, 3 min), the supernatant was used as a post-nuclear cell lysate. To perform the glucosylation assay, the cell lysates were incubated with TcdA or TcdA-SNO (final concentration of the toxins was 5 μg/ml) at 37° C. for 30 min. The reaction was terminated by heating at 100° C. for 5 min in SDS-sample buffer. To measure Rac1 glucosylation levels, lysates were separated on a 4-20% gradient SDS-PAGE gel and transferred onto a nitrocellulose membrane. An antibody that specifically recognizes the non-glucosylated form of Rac1 (clone 102, BD Bioscience) was used for detection.

TcdA [4] = biological target: T2, TcdA (Clostridioides difficile, UniProt P16154); assay type: in vivo, Cd-1 mice
Method: TcdA-Exposure of Mouse Ileal Loops. Cd-1 mice (10 week old males; Charles River Labs) were fasted overnight. Ileal loops were ligated in anesthetized animals via laparotomy and injected with 0.15 ml of purified TcdA, TcdA-SNO or TcdA-NEM (10 μg) or buffer as described (Savidge et al., Gastroenterology 125:413-20 (2003); Oiu et al., Gastroenterology 111: 409-18 (1996)). […] Four hrs after TcdA administration, mice were euthanized and fluid secretion was determined as the loop weight ([…])-to-length (cm) ratio. Full thickness loops were frozen in liquid nitrogen or fixed in 10% formalin in PBS (pH 7.2) for 24 hours and embedded in paraffin using routine procedures. Histological severity of enteritis was evaluated by assessing (1) epithelial cell necrosis, (2) hemorrhagic congestion and edema of the mucosa, and (3) neutrophil margination and tissue infiltration (Savidge et al., Gastroenterology 125:413-20 (2003); Oiu et al., Gastroenterology 111: 409-18 (1996)).
Myeloperoxidase Assay. Neutrophil myeloperoxidase (MPO) activity is an indicator of tissue inflammation. Intestinal segments (100-250 mg) were homogenized in 1 ml HTAB buffer and centrifuged at 20,000×g for 10 min at 4° C. Pellets were resuspended in 1 ml HTAB buffer containing 1% hexadecyltrimethlammonium to negate pseudoperoxidase activity. MPO activity was measured in supernatants following 3 cycles of sonication, freezing and thawing. After centrifugation at 40,000×g for 15 min at 4° C., supernatants (10 μl) were mixed with 90 μl of potassium phosphate buffer containing 0.167 mg/ml O-dianiside dihydrochloride and 0.0005% hydrogen peroxide. Activity was measured every 2 minutes for 20 minutes at 450 nm.
Quantitative Cytokine mRNA Measurements. Total RNA was extracted from cells or frozen tissues, treated with 1 U DNAse I and reversed transcribed (Gene Amp RNA-PCR Kit). Real-time rtPCR reactions were run with SYBR Green PCR Master-Mix for 40 cycles on a Chromo4 detector (Bio-Rad Ltd) (94° C. for 2 min; 94° C. for 1 min; 60° C. for 1 min; 72QC for lmin; repeat step 2-to-4 for 40 cycles; 72° C. for 10 min). Primer sets were for human IL-8: (Forward 5′-[…]-3′ SEQ ID NO:2; Reverse 5′-[…]-3′ SEQ ID NO:3); murine TNFα (Forward 5′-[…]-3′ SEQ ID NO:4, Reverse 5′-[…] […]-3′ SEQ ID NO:5); murine […] (Forward 5′-TTGAC[…]-3′ SEQ ID NO:6, Reverse 5′-[…]-3′ SEQ ID NO:7). Samples were normalized against commercial GAPDH or 18S rRNA primers and probes (Applied Biosystems) and relative expression levels were calculated as previously described (Savidge et al., Gastroenterology 132:1344-58 (2007)).

C. difficile VPI 10463 = assay type: in vivo, C57BL/6 mice
Text: Murine C. Difficile Infection Model. A conventional mouse model of antibiotic-induced C. difficile infection that closely resembles the spectrum of disease manifest in humans was used as described (Chen et al., Gastroenterology 135:1984-92 (2008)). Disease severity varies from fulminant with typical histopathologic features of C. difficile infection, to minimal diarrhea depending on challenge dose. 12 week-old C57BL/6 mice were pre-treated for three days with a mixture of antibiotics shown to disrupt the intestinal microflora (Chen et al., Gastroenterology 135:1984-92 (2008)). After two days, mice were injected with clindamycin and were challenged intragastrically with 10^6 C. difficile VPI 10463 vegetative cells the following day. […] Oral administration of vancomycin (50 mg/kg/day) was used as a positive control.

TcdB [5] = biological target: T1, TcdB
TcdA [6] = biological target: T2, TcdA; experiment: cell-based
[7] = in vivo; cited from earlier work
deoxygenated hemoglobin = deoxygenated hemoglobin (Homo sapiens, UniProt P68871); assay type: binding

T2 sequence (P16154 whole entry, looked up): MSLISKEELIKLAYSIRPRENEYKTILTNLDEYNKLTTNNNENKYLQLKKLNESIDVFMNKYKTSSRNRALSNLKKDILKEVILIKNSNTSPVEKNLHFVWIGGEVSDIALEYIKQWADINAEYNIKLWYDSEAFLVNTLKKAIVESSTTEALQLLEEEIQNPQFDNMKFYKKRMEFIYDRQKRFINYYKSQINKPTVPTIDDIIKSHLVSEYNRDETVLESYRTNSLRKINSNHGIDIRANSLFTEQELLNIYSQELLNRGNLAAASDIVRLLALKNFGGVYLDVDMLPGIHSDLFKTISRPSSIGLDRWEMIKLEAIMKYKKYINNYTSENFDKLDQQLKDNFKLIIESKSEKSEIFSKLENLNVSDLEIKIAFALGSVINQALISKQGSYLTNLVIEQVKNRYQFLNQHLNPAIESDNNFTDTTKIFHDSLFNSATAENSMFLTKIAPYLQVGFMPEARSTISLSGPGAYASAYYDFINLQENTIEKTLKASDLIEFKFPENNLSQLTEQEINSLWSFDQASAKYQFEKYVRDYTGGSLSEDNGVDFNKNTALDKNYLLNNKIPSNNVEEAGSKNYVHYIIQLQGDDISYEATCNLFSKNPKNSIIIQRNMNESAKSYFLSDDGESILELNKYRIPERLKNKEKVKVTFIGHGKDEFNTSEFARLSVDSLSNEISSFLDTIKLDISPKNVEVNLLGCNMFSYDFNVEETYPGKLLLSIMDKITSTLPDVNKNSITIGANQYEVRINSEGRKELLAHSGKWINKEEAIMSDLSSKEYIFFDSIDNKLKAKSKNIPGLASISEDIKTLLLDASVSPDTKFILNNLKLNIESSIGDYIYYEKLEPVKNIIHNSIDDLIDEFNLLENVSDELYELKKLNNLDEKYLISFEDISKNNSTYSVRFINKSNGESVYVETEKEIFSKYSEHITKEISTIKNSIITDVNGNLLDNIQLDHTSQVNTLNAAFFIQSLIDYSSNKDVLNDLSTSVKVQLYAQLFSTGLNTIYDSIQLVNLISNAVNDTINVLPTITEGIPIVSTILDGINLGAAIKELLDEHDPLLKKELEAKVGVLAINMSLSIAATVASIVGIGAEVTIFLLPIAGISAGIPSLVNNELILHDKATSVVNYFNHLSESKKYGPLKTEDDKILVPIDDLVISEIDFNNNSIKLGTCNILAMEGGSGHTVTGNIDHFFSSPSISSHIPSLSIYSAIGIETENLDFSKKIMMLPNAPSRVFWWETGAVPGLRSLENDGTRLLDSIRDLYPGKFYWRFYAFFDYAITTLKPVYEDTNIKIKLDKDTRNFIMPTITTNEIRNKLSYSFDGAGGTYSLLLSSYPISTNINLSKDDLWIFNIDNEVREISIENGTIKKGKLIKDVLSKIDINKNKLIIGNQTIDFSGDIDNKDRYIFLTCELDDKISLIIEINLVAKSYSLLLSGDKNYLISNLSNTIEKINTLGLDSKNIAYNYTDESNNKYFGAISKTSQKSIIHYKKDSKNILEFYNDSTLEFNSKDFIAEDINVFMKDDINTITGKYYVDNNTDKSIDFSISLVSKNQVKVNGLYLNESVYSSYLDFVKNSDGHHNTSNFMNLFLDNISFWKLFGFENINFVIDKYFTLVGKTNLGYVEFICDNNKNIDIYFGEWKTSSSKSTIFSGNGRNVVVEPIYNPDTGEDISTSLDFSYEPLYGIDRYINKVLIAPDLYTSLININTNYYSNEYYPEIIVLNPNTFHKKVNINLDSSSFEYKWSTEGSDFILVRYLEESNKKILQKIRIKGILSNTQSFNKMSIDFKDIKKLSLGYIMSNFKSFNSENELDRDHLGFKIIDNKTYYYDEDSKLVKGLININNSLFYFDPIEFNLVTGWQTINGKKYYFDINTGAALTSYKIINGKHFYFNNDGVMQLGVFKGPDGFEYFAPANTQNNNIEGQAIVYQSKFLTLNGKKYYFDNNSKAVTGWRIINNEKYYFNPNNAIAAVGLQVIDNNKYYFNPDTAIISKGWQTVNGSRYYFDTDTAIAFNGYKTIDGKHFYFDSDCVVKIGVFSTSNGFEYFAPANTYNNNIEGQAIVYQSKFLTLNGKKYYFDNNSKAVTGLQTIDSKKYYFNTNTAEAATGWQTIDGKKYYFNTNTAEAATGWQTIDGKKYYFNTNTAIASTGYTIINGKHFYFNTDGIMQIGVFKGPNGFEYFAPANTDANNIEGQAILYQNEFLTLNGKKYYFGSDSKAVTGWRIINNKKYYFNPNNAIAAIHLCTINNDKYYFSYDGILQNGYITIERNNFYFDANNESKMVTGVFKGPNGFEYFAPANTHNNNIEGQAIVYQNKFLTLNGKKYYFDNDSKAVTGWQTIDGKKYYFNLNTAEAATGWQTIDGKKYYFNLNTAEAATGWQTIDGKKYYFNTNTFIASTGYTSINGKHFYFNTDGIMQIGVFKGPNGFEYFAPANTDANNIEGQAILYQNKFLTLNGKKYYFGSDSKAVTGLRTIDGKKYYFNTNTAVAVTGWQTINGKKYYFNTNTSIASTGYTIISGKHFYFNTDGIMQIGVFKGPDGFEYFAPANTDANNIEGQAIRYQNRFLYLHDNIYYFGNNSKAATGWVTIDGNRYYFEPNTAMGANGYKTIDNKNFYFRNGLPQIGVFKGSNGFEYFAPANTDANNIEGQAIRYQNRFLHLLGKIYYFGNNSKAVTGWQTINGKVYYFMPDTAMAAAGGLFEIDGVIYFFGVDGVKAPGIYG
T1 sequence (P18177 2-2366 limits assumed): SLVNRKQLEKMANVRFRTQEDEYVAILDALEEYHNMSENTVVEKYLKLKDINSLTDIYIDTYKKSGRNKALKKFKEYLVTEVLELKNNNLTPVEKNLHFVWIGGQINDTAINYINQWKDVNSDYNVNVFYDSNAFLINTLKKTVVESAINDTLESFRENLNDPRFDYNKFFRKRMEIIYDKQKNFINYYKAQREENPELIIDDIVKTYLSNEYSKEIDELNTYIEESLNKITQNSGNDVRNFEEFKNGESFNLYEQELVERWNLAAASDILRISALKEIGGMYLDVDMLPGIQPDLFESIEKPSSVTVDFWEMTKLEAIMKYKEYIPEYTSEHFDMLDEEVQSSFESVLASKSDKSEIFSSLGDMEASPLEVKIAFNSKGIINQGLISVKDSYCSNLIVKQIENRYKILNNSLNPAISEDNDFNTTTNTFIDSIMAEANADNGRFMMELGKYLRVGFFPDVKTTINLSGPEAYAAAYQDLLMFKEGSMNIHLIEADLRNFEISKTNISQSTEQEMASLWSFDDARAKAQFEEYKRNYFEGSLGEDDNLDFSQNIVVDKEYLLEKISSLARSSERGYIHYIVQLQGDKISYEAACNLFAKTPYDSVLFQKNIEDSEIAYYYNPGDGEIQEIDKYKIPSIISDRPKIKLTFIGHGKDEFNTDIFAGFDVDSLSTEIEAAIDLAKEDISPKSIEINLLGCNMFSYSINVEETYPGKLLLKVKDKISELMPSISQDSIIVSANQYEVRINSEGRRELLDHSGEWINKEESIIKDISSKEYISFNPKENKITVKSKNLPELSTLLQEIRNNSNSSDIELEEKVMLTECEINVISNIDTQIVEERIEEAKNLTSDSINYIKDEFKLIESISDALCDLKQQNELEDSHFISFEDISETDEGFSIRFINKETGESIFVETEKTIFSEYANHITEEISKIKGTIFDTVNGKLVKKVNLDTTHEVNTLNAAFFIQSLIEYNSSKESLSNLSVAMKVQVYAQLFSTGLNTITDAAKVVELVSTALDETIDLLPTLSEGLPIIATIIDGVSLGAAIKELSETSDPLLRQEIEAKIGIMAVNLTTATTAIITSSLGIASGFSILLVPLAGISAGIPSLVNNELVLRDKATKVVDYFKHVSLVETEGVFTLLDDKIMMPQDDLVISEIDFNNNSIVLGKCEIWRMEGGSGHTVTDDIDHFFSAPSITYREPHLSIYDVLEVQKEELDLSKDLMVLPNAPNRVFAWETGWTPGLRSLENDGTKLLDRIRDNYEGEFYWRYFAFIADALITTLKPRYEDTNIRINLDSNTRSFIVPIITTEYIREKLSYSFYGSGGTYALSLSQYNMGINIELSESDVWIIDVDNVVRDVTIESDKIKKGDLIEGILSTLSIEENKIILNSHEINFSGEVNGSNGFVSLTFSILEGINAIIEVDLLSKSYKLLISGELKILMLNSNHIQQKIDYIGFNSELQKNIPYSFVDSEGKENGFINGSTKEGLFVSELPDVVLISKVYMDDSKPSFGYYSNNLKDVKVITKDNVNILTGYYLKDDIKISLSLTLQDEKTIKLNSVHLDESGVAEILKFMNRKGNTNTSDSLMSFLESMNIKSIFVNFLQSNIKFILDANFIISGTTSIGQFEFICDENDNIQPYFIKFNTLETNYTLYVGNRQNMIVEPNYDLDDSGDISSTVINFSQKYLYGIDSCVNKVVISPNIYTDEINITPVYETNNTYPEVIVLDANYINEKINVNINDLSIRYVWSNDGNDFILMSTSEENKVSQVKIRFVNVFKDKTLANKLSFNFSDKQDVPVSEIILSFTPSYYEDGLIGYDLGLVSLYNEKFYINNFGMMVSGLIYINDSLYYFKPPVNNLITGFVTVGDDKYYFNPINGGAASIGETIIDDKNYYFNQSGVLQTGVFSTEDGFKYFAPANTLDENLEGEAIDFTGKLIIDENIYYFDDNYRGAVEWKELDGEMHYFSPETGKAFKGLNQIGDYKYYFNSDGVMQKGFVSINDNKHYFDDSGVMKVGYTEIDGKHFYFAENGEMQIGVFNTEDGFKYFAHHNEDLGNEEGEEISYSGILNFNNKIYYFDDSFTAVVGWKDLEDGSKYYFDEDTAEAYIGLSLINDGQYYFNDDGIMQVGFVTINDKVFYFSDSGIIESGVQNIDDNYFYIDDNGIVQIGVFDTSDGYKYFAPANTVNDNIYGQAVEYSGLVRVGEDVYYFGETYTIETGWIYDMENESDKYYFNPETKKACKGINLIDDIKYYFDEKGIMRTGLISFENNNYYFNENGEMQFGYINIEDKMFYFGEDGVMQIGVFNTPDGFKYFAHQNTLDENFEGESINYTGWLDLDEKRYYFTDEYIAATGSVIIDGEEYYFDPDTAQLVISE

O[C@H](CS)[C@H](O)CS (racemic) [DTT, dithiothreitol]
toxin autocleavage with agent alone (TcdB [1]): No significant toxin autocleavage

N[C@@H](CCC(=O)N[C@@H](CS)C(=O)NCC(=O)O)C(=O)O [GSH, glutathione]
effect on InsP6 induced TcdB autocleavage (TcdB [1]): potentiated | toxin autocleavage with agent alone (TcdB [1]): No significant toxin autocleavage

CCOC(=O)CNC(=O)[C@H](CS)NC(=O)CC[C@H](N)C(=O)O [GSH-EE, GSH-ethyl ester]
effect on cytoprotection of eNOS expressing Caco-2 cells against TcdB (Caco-2 cells): reversed

N[C@@H](CCC(=O)N[C@@H](CSN=O)C(=O)NCC(=O)O)C(=O)O [GSNO, S-nitrosoglutathione]
effect on InsP6 binding to the cysteine protease domain [2]: significantly inhibited | effect on InsP6 induced TcdB autocleavage (TcdB [1]): inhibited | glucosyltransferase activity in cell lysates [3]: did not inhibit toxin binding to Caco-2 cells or alter glucosyltransferase activity | TcdA induced fluid secretion in murine ileal loops (TcdA [4]; GSNO 10 mg/kg in 0.1 ml, TcdA 10 μg, 4 hrs): inhibits | TcdA induced TNF-α and IL-1γ gene transcripts (TcdA [4]; TcdA 10 μg, 4 hrs): significantly attenuated | toxin-induced disease activity (histological damage, inflammation, intestinal secretion) (TcdA [4]; co-injected with TcdA into ileal loops for 4 hrs): markedly reduced | survival (Kaplan-Meier) (C. difficile VPI 10463; oral gavage GSNO 10 mg/kg/day): survival benefit | IC50 of GSNO with inositolphosphate cofactor (TcdB [5]): low micromolar range | toxin binding to Caco-2 cells (C. difficile toxin): did not inhibit | IC50 (TcdA [6]): 57.9 µM | tolerability [7]: well tolerated

O=P(O)(O)OC1C(OP(=O)(O)O)C(OP(=O)(O)O)C(OP(=O)(O)O)C(OP(=O)(O)O)C1OP(=O)(O)O (stereo not shown) [InsP6, inositol hexakisphosphate]
binding affinity (deoxygenated hemoglobin): > 1.6 nM/mg protein | effect of added InsP6 on GSNO inhibition of TNF-α and IL-1γ transcripts (TcdA [4]; InsP6 1 mM with GSNO): potentiated | effect of added InsP6 on GSNO protection against fluid secretion (TcdA [4]; InsP6 1 mM with GSNO 10 mg/kg): enhanced | effect of added InsP6 on survival benefit of GSNO (C. difficile VPI 10463; oral InsP6 0.25 mg/kg/day with GSNO 10 mg/kg/day): potentiated

COC(=O)[C@@H](N)CCCNC(=N)N[N+](=O)[O-] [L-NAME, N^G-nitro-L-arginine methyl ester]
effect on cytoprotection of eNOS expressing Caco-2 cells against TcdB (Caco-2 cells): reversed

(rac1)-1(3)-PP-(2,3,4,5,6)InsP5 [r-InsP7]
TcdB autocleavage activity (TcdB [1]): not significantly different

D-myo-5-PP-(1,2,3,4,6)InsP5 [m-InsP7]
TcdB autocleavage activity (TcdB [1]): not significantly different
